Data taken from US20100267561A1, “HERBICIDAL PYRIDAZINONE DERIVATIVES” (priority 2007, published 2010).

Legend:
Assay type in all cases: in vivo
[1] = test system: ducksalad (Heteranthera limosa); assay: Test B flooded paddy test plant response
Summary of the method: (§1)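 2-leaf plants; pots flooded 3 cm above soil; compound added to paddy water; depth maintained. Greenhouse 13–15 d. Visual rating vs controls, 0 (no effect) to 100 (complete control); dash = no result.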

[2] = test system: barnyardgrass (Echinochloa crus-galli); assay: Test B flooded paddy test plant response
Summary of the method: as §1

rice (Oryza sativa) = assay: Test B flooded paddy test plant response
Summary of the method: as §1

[3] = test system: umbrella sedge (Cyperus difformis); assay: Test B flooded paddy test plant response
Summary of the method: as §1

[4] = test system: bermudagrass (Cynodon dactylon); assay: Test B pre-/postemergence plant response
Summary of the method: (§2)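 Seeds were sown and sprayed preemergence, while plants at 2 to 18 cm (1- to 4-leaf stage) got postemergence sprays. Compounds were formulated in a non-phytotoxic solvent mixture with surfactant. After 13 to 15 days in a greenhouse, injury was rated visually against untreated controls, 0 (no effect) to 100 (complete control).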

[5] = test system: giant foxtail (Setaria faberii); assay: Test B pre-/postemergence plant response
Summary of the method: as §2

[6] = test system: velvetleaf (Abutilon theophrasti); assay: Test B pre-/postemergence plant response
Summary of the method: as §2

[7] = test system: Italian ryegrass (Lolium multiflorum); assay: Test B pre-/postemergence plant response
Summary of the method: as §2

[8] = test system: Russian thistle (Salsola iberica); assay: Test B pre-/postemergence plant response; conditions: Preemergence; for Russian Thistle plant response rating: scale 0 to 100
Summary of the method: as §2

corn (Zea mays) = assay: Test B pre-/postemergence plant response
Summary of the method: as §2

[9] = test system: downy bromegrass (Bromus tectorum); assay: Test B pre-/postemergence plant response
Summary of the method: as §2

[10] = test system: woolly cupgrass (Eriochloa villosa); assay: Test B pre-/postemergence plant response
Summary of the method: as §2

[11] = test system: yellow nutsedge (Cyperus esculentus); assay: Test B pre-/postemergence plant response
Summary of the method: as §2

[12] = test system: cocklebur (Xanthium strumarium); assay: Test B pre-/postemergence plant response
Summary of the method: as §2

[13] = Flood (flooded paddy test), 62 g ai/ha, scale 0 to 100, 0 no effect, 100 complete control
[14] = Flood (flooded paddy test), 125 g ai/ha, scale 0 to 100, 0 no effect, 100 complete control
[15] = Flood (flooded paddy test), 250 g ai/ha, scale 0 to 100, 0 no effect, 100 complete control
[16] = Flood, 31 g ai/ha, scale 0 to 100
[17] = 8 g ai/ha, postemergence, 0-100 scale
[18] = Postemergence, 16 g ai/ha, scale 0 to 100
[19] = Postemergence, 31 g ai/ha, scale 0 to 100
[20] = Postemergence, 62 g ai/ha, scale 0 to 100, 0 no effect, 100 complete control
[21] = Preemergence, 8 g ai/ha, scale 0 to 100 (0 no effect, 100 complete control)
[22] = Preemergence, 16 g ai/ha, scale 0 to 100 (0 no effect, 100 complete control)
[23] = Preemergence, 31 g ai/ha, scale 0 to 100 (0 no effect, 100 complete control)
[24] = Preemergence, 62 g ai/ha, 0 to 100 scale, 0 no effect, 100 complete control
[25] = Preemergence, 8 g ai/ha, scale 0 to 100
[26] = Preemergence, 16 g ai/ha, scale 0 to 100
[27] = 16 g ai/ha, postemergence, 0-100 scale
[28] = 31 g ai/ha, scale 0 to 100 (0 no effect, 100 complete control)
[29] = 62 g ai/ha, 0 to 100 scale, 0 no effect, 100 complete control

CCCc1cc(-c2ccc(C(F)(F)F)cc2)nn1-c1c(O)cnn(C)c1=O [Compound 72]
85: Foxtail, Giant plant response rating [5, 26] | Plant response rating, Corn (corn (Zea mays); [23]) | Plant response rating, Cupgrass, Woolly [10, 23]
70: Plant response rating, Barnyardgrass [2, 15] | Foxtail, Giant plant response rating [5, 25] | Corn plant response rating (corn (Zea mays); [25]) | Cupgrass, Woolly plant response rating [10, 25]
60: Plant response rating, Sedge, Umbrella [3, 14] | Plant response rating, Bermudagrass [4, 19]
10: Plant response rating, Rice (rice (Oryza sativa); [16])
75: Ryegrass, Italian plant response rating [7, 25]
40: Plant response rating, Ducksalad [1, 15] | Plant response rating, Barnyardgrass [2, 14] | Bermudagrass plant response rating [4, 21]
20: Plant response rating, Barnyardgrass [2, 13] | Bromegrass, Downy plant response rating [9, 17]
50: Plant response rating, Bermudagrass [4, 18] | Corn plant response rating (corn (Zea mays); [17]) | Plant response rating, Bromegrass, Downy [9, 23]
0: Plant response rating, Ducksalad [1, 13] | Plant response rating, Ducksalad [1, 14] | Plant response rating, Ducksalad [1, 16] | Plant response rating, Barnyardgrass [2, 16] | Plant response rating, Sedge, Umbrella [3, 13] | Plant response rating, Sedge, Umbrella [3, 16] | Bermudagrass plant response rating [4, 17] | Velvetleaf plant response rating [6, 17] | Velvetleaf plant response rating [6, 27] | Plant response rating, Velvetleaf [6, 19] | Plant response rating, Velvetleaf [6, 20] | Plant response rating, Velvetleaf [6, 23] | Plant response rating, Velvetleaf [6, 24] | Velvetleaf plant response rating [6, 25] | Velvetleaf plant response rating [6, 26] | Plant response rating, Russian Thistle [8, 28] | Plant response rating, Russian Thistle [8, 29] | Russian Thistle plant response rating ([8]; 8 g ai/ha) | Russian Thistle plant response rating ([8]; 16 g ai/ha) | Bromegrass, Downy plant response rating [9, 25] | Nutsedge, Yellow plant response rating [11, 17] | Nutsedge, Yellow plant response rating [11, 27] | Plant response rating, Nutsedge, Yellow [11, 19] | Plant response rating, Nutsedge, Yellow [11, 20] | Plant response rating, Nutsedge, Yellow [11, 23] | Plant response rating, Nutsedge, Yellow [11, 24] | Nutsedge, Yellow plant response rating [11, 25] | Nutsedge, Yellow plant response rating [11, 26] | Cocklebur plant response rating [12, 17] | Plant response rating, Cocklebur [12, 18] | Plant response rating, Cocklebur [12, 19] | Plant response rating, Cocklebur [12, 20] | Plant response rating, Cocklebur [12, 22] | Plant response rating, Cocklebur [12, 23] | Plant response rating, Cocklebur [12, 24] | Cocklebur plant response rating [12, 25]
90: Ryegrass, Italian plant response rating [7, 26] | Plant response rating, Corn (corn (Zea mays); [18]) | Plant response rating, Corn (corn (Zea mays); [19]) | Plant response rating, Cupgrass, Woolly [10, 19] | Plant response rating, Cupgrass, Woolly [10, 20]
15: Plant response rating, Rice (rice (Oryza sativa); [13])
30: Plant response rating, Bromegrass, Downy [9, 18] | Plant response rating, Bromegrass, Downy [9, 19] | Plant response rating, Bromegrass, Downy [9, 20] | Plant response rating, Bromegrass, Downy [9, 22]
80: Plant response rating, Bermudagrass [4, 20] | Ryegrass, Italian plant response rating [7, 17] | Corn plant response rating (corn (Zea mays); [26]) | Plant response rating, Cupgrass, Woolly [10, 18]
100: Plant response rating, Bermudagrass [4, 22] | Plant response rating, Bermudagrass [4, 23] | Plant response rating, Bermudagrass [4, 24] | Plant response rating, Foxtail, Giant [5, 18] | Plant response rating, Foxtail, Giant [5, 19] | Plant response rating, Foxtail, Giant [5, 20] | Plant response rating, Foxtail, Giant [5, 23] | Plant response rating, Foxtail, Giant [5, 24] | Ryegrass, Italian plant response rating [7, 27] | Plant response rating, Ryegrass, Italian [7, 19] | Plant response rating, Ryegrass, Italian [7, 20] | Plant response rating, Ryegrass, Italian [7, 23] | Plant response rating, Ryegrass, Italian [7, 24] | Plant response rating, Corn (corn (Zea mays); [20]) | Plant response rating, Corn (corn (Zea mays); [24]) | Plant response rating, Cupgrass, Woolly [10, 24]
55: Cupgrass, Woolly plant response rating [10, 17]
65: Plant response rating, Rice (rice (Oryza sativa); [15]) | Plant response rating, Sedge, Umbrella [3, 15]
45: Plant response rating, Rice (rice (Oryza sativa); [14])
95: Foxtail, Giant plant response rating [5, 17] | Plant response rating, Bromegrass, Downy [9, 24]

CCCc1cc(-c2ccc(Cl)cc2)nn1-c1c(O)cnn(C)c1=O [Compound 76]
80: Plant response rating, Bermudagrass [4, 18]
20: Bermudagrass plant response rating [4, 22] | Plant response rating, Bromegrass, Downy [9, 20]
65: Ryegrass, Italian plant response rating [7, 17] | Plant response rating, Cupgrass, Woolly [10, 18]
85: Plant response rating, Bermudagrass [4, 19] | Plant response rating, Foxtail, Giant [5, 18] | Plant response rating, Corn (corn (Zea mays); [18]) | Plant response rating, Corn (corn (Zea mays); [24]) | Plant response rating, Cupgrass, Woolly [10, 19]
95: Plant response rating, Foxtail, Giant [5, 19] | Plant response rating, Ryegrass, Italian [7, 23] | Plant response rating, Ryegrass, Italian [7, 24]
0: Plant response rating, Ducksalad [1, 13] | Plant response rating, Ducksalad [1, 15] | Plant response rating, Barnyardgrass [2, 13] | Plant response rating, Barnyardgrass [2, 15] | Plant response rating, Rice (rice (Oryza sativa); [13]) | Plant response rating, Rice (rice (Oryza sativa); [15]) | Plant response rating, Sedge, Umbrella [3, 13] | Plant response rating, Sedge, Umbrella [3, 15] | Bermudagrass plant response rating [4, 21] | Foxtail, Giant plant response rating [5, 25] | Velvetleaf plant response rating [6, 17] | Velvetleaf plant response rating [6, 27] | Plant response rating, Velvetleaf [6, 19] | Plant response rating, Velvetleaf [6, 20] | Plant response rating, Velvetleaf [6, 23] | Plant response rating, Velvetleaf [6, 24] | Velvetleaf plant response rating [6, 25] | Velvetleaf plant response rating [6, 26] | Plant response rating, Russian Thistle [8, 28] | Plant response rating, Russian Thistle [8, 29] | Russian Thistle plant response rating ([8]; 8 g ai/ha) | Russian Thistle plant response rating ([8]; 16 g ai/ha) | Corn plant response rating (corn (Zea mays); [25]) | Bromegrass, Downy plant response rating [9, 17] | Plant response rating, Bromegrass, Downy [9, 18] | Plant response rating, Bromegrass, Downy [9, 19] | Plant response rating, Bromegrass, Downy [9, 23] | Plant response rating, Bromegrass, Downy [9, 24] | Bromegrass, Downy plant response rating [9, 25] | Bromegrass, Downy plant response rating [9, 26] | Nutsedge, Yellow plant response rating [11, 17] | Nutsedge, Yellow plant response rating [11, 27] | Plant response rating, Nutsedge, Yellow [11, 19] | Plant response rating, Nutsedge, Yellow [11, 20] | Cocklebur plant response rating [12, 17] | Plant response rating, Cocklebur [12, 18] | Plant response rating, Cocklebur [12, 19] | Plant response rating, Cocklebur [12, 20] | Plant response rating, Cocklebur [12, 23] | Plant response rating, Cocklebur [12, 24] | Cocklebur plant response rating [12, 25] | Cocklebur plant response rating [12, 26]
90: Plant response rating, Bermudagrass [4, 20] | Plant response rating, Foxtail, Giant [5, 23] | Plant response rating, Cupgrass, Woolly [10, 20] | Plant response rating, Cupgrass, Woolly [10, 23]
55: Corn plant response rating (corn (Zea mays); [26]) | Cupgrass, Woolly plant response rating [10, 25]
98: Plant response rating, Foxtail, Giant [5, 20] | Ryegrass, Italian plant response rating [7, 27] | Plant response rating, Cupgrass, Woolly [10, 24]
60: Cupgrass, Woolly plant response rating [10, 17]
100: Plant response rating, Bermudagrass [4, 23] | Plant response rating, Bermudagrass [4, 24] | Plant response rating, Foxtail, Giant [5, 24] | Plant response rating, Ryegrass, Italian [7, 19] | Plant response rating, Ryegrass, Italian [7, 20] | Plant response rating, Corn (corn (Zea mays); [19]) | Plant response rating, Corn (corn (Zea mays); [20]) | Plant response rating, Nutsedge, Yellow [11, 23] | Plant response rating, Nutsedge, Yellow [11, 24] | Nutsedge, Yellow plant response rating [11, 25] | Nutsedge, Yellow plant response rating [11, 26]
70: Bermudagrass plant response rating [4, 17] | Foxtail, Giant plant response rating [5, 26]
75: Foxtail, Giant plant response rating [5, 17] | Ryegrass, Italian plant response rating [7, 25] | Ryegrass, Italian plant response rating [7, 26] | Corn plant response rating (corn (Zea mays); [17]) | Plant response rating, Corn (corn (Zea mays); [23]) | Cupgrass, Woolly plant response rating [10, 26]
